Source: US20190211020A1 (Agency for Science, Technology and Research, priority 2012, published 2019)
Like-named read-outs stand apart in the source and are kept apart here.

Legend:
[1] = Pharmacokinetics assays (plasma and brain); type: in vivo; design: AUC(0-t) / AUC(0-inf): concentration or dose not given beside the values; settings: for AUC(0-t): read-out: Plasma AUC last; for Cmax: species, dose and route not given; for Plasma/Brain Ratio: in vivo
[2] = tested on: eIF4E Ser209 phosphorylation in Hela cells; experiment: MNK cell-based assay (AlphaScreen SureFire, eIF4E Ser209 phosphorylation); settings: Homo sapiens, read-out: IC50 Hela
Procedure, shortened: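 Hela cells (30,000/well) exposed to test compound in serum-free medium for 2 h at 37 °C, then lysed. Phospho-Ser209 eIF4E quantified by AlphaScreen SureFire; IC50 obtained by non-linear regression of signal versus log compound concentration.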

[3] = brain, read-out: Brain T1/2 (converted)
[4] = plasma, read-out: Plasma T1/2 (converted)
[5] = eIF4E Ser209 phosphorylation, Hela cells, 2 hours

CN1CCN(C(=O)c2ccc(-c3cn4c(-c5ccc(C#N)cc5)cnc4cn3)cc2)CC1 [Entry 1]
Brain AUC inf ([1]; brain): 625 ng·h/g
Brain AUC last ([1]; brain): 520 ng·h/g
Brain Cmax ([1]; brain): 290 ng/g
half-life [1, 3]: 1.39 h
Tmax ([1]; brain, read-out: Brain Tmax): 0.5 h
AUC(0-inf) ([1]; plasma): 7440 ng·h/mL
AUC(0-t) ([1]; plasma): 7420 ng·h/mL
half-life [1, 4]: 3.02 h
Tmax ([1]; plasma, read-out: Plasma Tmax): 0.25 h
Cmax ([1]; plasma): 2670 ng/mL

CN(C)C1CCN(C(=O)c2ccc(-c3cn4c(-c5ccc(C#N)cc5)cnc4cn3)cc2)CC1 [Entry 2]
Brain AUC inf ([1]; brain): 99 ng·h/g
Brain AUC last ([1]; brain): 71 ng·h/g
Brain Cmax ([1]; brain): 14.6 ng/g
half-life [1, 3]: 4.11 h
Tmax ([1]; brain, read-out: Brain Tmax): 0.25 h
Plasma/Brain Ratio [1]: 0.13
AUC(0-inf) ([1]; plasma): 536 ng·h/mL
AUC(0-t) ([1]; plasma): 527 ng·h/mL
half-life [1, 4]: 2.06 h
Tmax ([1]; plasma, read-out: Plasma Tmax): 0.25 h
Cmax ([1]; plasma): 227 ng/mL

CN1CCN(C(=O)c2ccc(-c3ccc4ncc(-c5ccc(C#N)cc5)n4c3)cc2)CC1=O [Entry 3]
Brain AUC inf ([1]; brain): 77 ng·h/g
Brain AUC last ([1]; brain): 59 ng·h/g
Brain Cmax ([1]; brain): 77.78 ng/g
half-life [1, 3]: 0.96 h
Tmax ([1]; brain, read-out: Brain Tmax): 0.25 h
Plasma/Brain Ratio [1]: 0.01
AUC(0-inf) ([1]; plasma): 4190 ng·h/mL
AUC(0-t) ([1]; plasma): 4120 ng·h/mL
half-life [1, 4]: 2.51 h
Tmax ([1]; plasma, read-out: Plasma Tmax): 0.25 h
Cmax ([1]; plasma): 3160 ng/mL

CN1CCN(C2CCN(C(=O)c3ccc(-c4ccc5ncc(-c6ccc(C#N)cc6)n5c4)cc3)CC2)CC1 [Entry 4]
Brain AUC last ([1]; brain): 184 ng·h/g
Brain Cmax ([1]; brain): 20 ng/g
Tmax ([1]; brain, read-out: Brain Tmax): 8 h
Plasma/Brain Ratio [1]: 0.3
AUC(0-inf) ([1]; plasma): 632 ng·h/mL
AUC(0-t) ([1]; plasma): 614 ng·h/mL
half-life [1, 4]: 2.38 h
Tmax ([1]; plasma, read-out: Plasma Tmax): 0.25 h
Cmax ([1]; plasma): 223 ng/mL

N#Cc1ccc(-c2cnc3ccc(-c4ccc(C(=O)N5CCOCC5)cc4)nn23)cc1 [Entry 5]
Brain AUC inf ([1]; brain): 8951 ng·h/g
Brain AUC last ([1]; brain): 8811 ng·h/g
Brain Cmax ([1]; brain): 1724 ng/g
half-life [1, 3]: 4.28 h
AUC(0-inf) ([1]; plasma): 76500 ng·h/mL
AUC(0-t) ([1]; plasma): 74700 ng·h/mL
half-life [1, 4]: 4.33 h
Cmax ([1]; plasma): 13400 ng/mL

N#Cc1ccc(-c2cnc3ccc(-c4ccc(C(=O)N5CCNCC5)cc4)nn23)cc1 [Entry 6]
Brain AUC last ([1]; brain): 17 ng·h/g
Brain Cmax ([1]; brain): 10 ng/g
Tmax ([1]; brain, read-out: Brain Tmax): 0.25 h
Plasma/Brain Ratio [1]: 0.05
AUC(0-inf) ([1]; plasma): 359 ng·h/mL
AUC(0-t) ([1]; plasma): 350 ng·h/mL
half-life [1, 4]: 1.59 h
Tmax ([1]; plasma, read-out: Plasma Tmax): 0.25 h
Cmax ([1]; plasma): 275 ng/mL

N#Cc1ccc(-c2cnc3ccc(-c4ccc(C(=O)N5CCOCC5)cc4)cn23)cc1 [Entry 7]
Brain AUC inf ([1]; brain): 2516 ng·h/g
Brain AUC last ([1]; brain): 2474 ng·h/g
Brain Cmax ([1]; brain): 678 ng/g
half-life [1, 3]: 2.05 h
Tmax ([1]; brain, read-out: Brain Tmax): 1 h
AUC(0-inf) ([1]; plasma): 26000 ng·h/mL
AUC(0-t) ([1]; plasma): 26000 ng·h/mL
half-life [1, 4]: 2.94 h
Tmax ([1]; plasma, read-out: Plasma Tmax): 0.25 h
Cmax ([1]; plasma): 7360 ng/mL

CN1CCN(C2(C)CCN(C(=O)c3ccc(-c4ccc5ncc(-c6ccc(C#N)cc6)n5c4)cc3)CC2)CC1 [Example 164, 4-(6-(4-(4-methyl-4-(4-methylpiperazin-1-yl)piperidine-1-carbonyl)phenyl)imidazo [1,2-a]pyridin-3-yl)benzonitrile]
IC50 [2, 5]: < 1000 nM

N#Cc1ccc(-c2cnc3ccc(-c4ccc(C(=O)N5CCNCC5)cc4)cn23)cc1 [Example 165, 4-(6-(4-(piperazine-1-carbonyl)phenyl)imidazo [1,2-a]pyridin-3-yl)benzonitrile]
IC50 [2, 5]: < 1000 nM

CC(=O)Nc1cc(-c2ccc3ncc(-c4ccc(C#N)cc4)n3c2)ccc1C(=O)N1CCOCC1 [Example 166, N-(5-(3-(4-cyanophenyl)imidazo[1,2-a]pyridin-6-yl)-2-(morpholine-4-carbonyl)phenyl)acetamide]
IC50 [2, 5]: < 1000 nM

N#Cc1ccc(-c2cnc3ccc(-c4ccc(C(=O)N5CCOCC5)c(O)c4)cn23)cc1 [Example 167, 4-(6-(3-hydroxy-4-(morpholine-4-carbonyl)phenyl)imidazo[1,2-a]pyridin-3-yl)benzonitrile]
IC50 [2, 5]: < 1000 nM

CNC1CCN(C(=O)c2ccc(-c3ccc4ncc(-c5ccc(C#N)cc5)n4c3)cc2NC(C)=O)CC1 [Example 169, N-(5-(3-(4-cyanophenyl)imidazo[1,2-a]pyridin-6-yl)-2-(4-(methylamino)piperidine-1-carbonyl)phenyl)acetamide]
IC50 [2, 5]: < 1000 nM

CC(=O)Nc1cc(-c2ccc3ncc(-c4ccc(C#N)cc4)n3c2)ccc1C(=O)N1CCNCC1 [Example 170, N-(5-(3-(4-cyanophenyl)imidazo[1,2-a]pyridin-6-yl)-2-(piperazine-1-carbonyl)phenyl)acetamide]
IC50 [2, 5]: < 1000 nM

COC1(C)CCN(C(=O)c2ccc(-c3ccc4ncc(-c5ccc(C#N)cc5)n4c3)cc2)CC1 [Example 172, 4-(6-(4-(4-methoxy-4-methylpiperidine-1-carbonyl)phenyl)imidazo[1,2-a]pyridin-3-yl)benzonitrile]
IC50 [2, 5]: < 1000 nM

CC1(N)CCN(C(=O)c2ccc(-c3ccc4ncc(-c5ccc(Cl)cc5)n4c3)cc2)CC1 [Example 173, (4-amino-4-methylpiperidin-1-yl)(4-(3-(4-chlorophenyl)imidazo [1,2-a]pyridin-6-yl)phenyl)methanone]
IC50 ([2]; HeLa, 2 h): < 1000 nM

NC1CCN(C(=O)c2ccc(-c3ccc4ncc(-c5ccc(Cl)cc5)n4c3)cc2)CC1 [Example 174, (4-aminopiperidin-1-yl)(4-(3-(4-chlorophenyl)imidazo[1,2-a]pyridin-6-yl)phenyl)methanone]
IC50 [2, 5]: < 1000 nM

CN1CCN(C2CCN(C(=O)c3ccc(-c4ccn5ncc(-c6ccc(C#N)cc6)c5n4)cc3)CC2)CC1 [Example 179, 4-(5-(4-(4-(4-methylpiperazin-1-yl)piperidine-1-carbonyl)phenyl)pyrazolo[1,5-a]pyrimidin-3-yl)benzonitrile]
IC50 [2, 5]: < 1000 nM

N#Cc1ccc(-c2cnn3ccc(-c4ccc(C(=O)N5CCCOCC5)cc4)nc23)cc1 [Example 181, 4-(5-(4-(1,4-oxazepane-4-carbonyl)phenyl)pyrazolo[1,5-a]pyrimidin-3-yl)benzonitrile]
IC50 [2, 5]: < 1000 nM

N#Cc1ccc(-c2cnn3ccc(-c4ccc(C(=O)N5CCNCC5)cc4)nc23)cc1 [Example 183, 4-(5-(4-(piperazine-1-carbonyl)phenyl)pyrazolo[1,5-a]pyrimidin-3-yl)benzonitrile]
IC50 [2, 5]: < 1000 nM

CC(=O)N1CCN(C(=O)c2ccc(-c3ccn4ncc(-c5ccc(C#N)cc5)c4n3)cc2)CC1 [Example 184]
IC50 [2, 5]: < 1000 nM

N#Cc1ccc(-c2cnn3ccc(-c4ccc(C(=O)N5CCOCC5)cc4)nc23)cc1 [Example 185, 4-(5-(4-(morpholine-4-carbonyl)phenyl)pyrazolo [1,5-a]pyrimidin-3-yl)benzonitrile]
IC50 [2, 5]: < 1000 nM

CC(=O)NC1CCN(C(=O)c2ccc(-c3ccn4ncc(-c5ccc(C#N)cc5)c4n3)cc2)CC1 [Example 186, N-(1-(4-(3-(4-cyanophenyl)pyrazolo[1,5-a]pyrimidin-5-yl)benzoyl)piperidin-4-yl)acetamide]
IC50 [2, 5]: < 1000 nM

N#Cc1ccc(-c2cnn3ccc(-c4ccc(C(=O)N5CCOCC5)c(O)c4)nc23)cc1 [Example 187, 4-(5-(3-hydroxy-4-(morpholine-4-carbonyl)phenyl)pyrazolo [1,5-a]pyrimidin-3-yl)benzonitrile]
IC50 [2, 5]: < 1000 nM

N#Cc1ccc(-n2cnc3ccc(-c4ccc(C(=O)N5CCOCC5)cc4)cc32)cc1 [Example 190, 4-(6-(4-(morpholine-4-carbonyl)phenyl)-1H-benzo[d]imidazol-1-yl)benzonitrile]
IC50 ([2]; HeLa, 2 h): < 1000 nM
